From US20230000876A1, “TREATING CANCERS WITH A CYCLIN-DEPENDENT KINASE INHIBITOR” (Nuvation Bio Inc., priority 2021, published 2023) come the findings set out here.

Assay [1] deals with KM12-luc. Briefly: CellTiter-Glo anti-proliferation assay, KM12-luc. Type of assay: cell-based. The procedure:
The anti-proliferation effect of 2 compounds (the compound of formula (I) and temozolomide) in 7 CNS metastasis cell lines (MOLT-4-luc, Nalm-6-luc, NCI-H460-luc, ACHN-luc2, PC-9-luc, H1975-luc, and KM12-luc) was evaluated.
The plating of cells and compound treatments are shown below in the plate map (Table 12). One plate was needed for the test of 2 compounds (the compound of formula (I) and temozolomide) in one cell line. The compound of formula (I) was tested from 10 μM, 3-fold serial dilution. Temozolomide was tested from 100 μM, 3-fold serial dilution.
All the cell lines were maintained in culture conditions at 37° C. in an atmosphere with 5% CO2 in air. The tumor cells were routinely subcultured. The cells growing in an exponential growth phase were harvested and counted for plating.
Cells were counted by haemocytometer with Trypan blue staining. Next, 135 μL of cell suspension were plated into the assay plates according to the plate map and 135 μL of assay medium into the blank wells. The plates were incubated at 37° C., 5% CO2, 95% air and 100% relative humidity overnight.
4.4.4 Compound Plate (10×) Preparation and Compound Treatment • 10× concentrate compound plate preparation: Add 198 μL of assay medium into each well of the V-bottom plate; then transfer 2 μL of the stock compound solution of each concentration from the stock plate. Add 2 μL of DMSO into the Blank and Control wells. Pipette up and down to mix well. This V-plate is designated as the 10× concentrate compound plate. • For day 0 plate, add 15 μL of the DMSO-medium into the Control wells. The final DMSO concentration was 0.1%. Then directly proceed to cell viability assay. • For assay plate, add 15 μL of the compound-medium of each well from the 10× concentrate compound plate into the cells in 96-well assay plate according to the plate map. Add 15 μL of the DMSO-medium into the Blank and Control wells. The final DMSO concentration was 0.1%. • Return the assay plate into incubator and incubate for 6 days.
The procedures were performed according to the Promega CellTiter-Glo Luminescent Cell Viability Assay Kit manual (Promega-G7573). • The CellTiter-Glo buffer was thawed and equilibrated to room temperature prior to use. • CellTiter-Glo Substrate was equilibrated to room temperature prior to use. • The entire liquid volume of CellTiter-Glo Buffer was transferred into the amber bottle containing CellTiter-Glo Substrate to reconstitute the lyophilized enzyme/substrate mixture. This forms the CellTiter-Glo Reagent. • The contents were mixed by gently vortexing to obtain a homogeneous solution. • The plate was equilibrated and its contents to room temperature for approximately 30 minutes. 75 μL (equal to the half volume of culture medium present in each well) CellTiter-Glo • Reagent was added in each well. Plates were covered with aluminum foil to protect from light. • The contents were mixed for 2 minutes on an orbital shaker to induce cell lysis. • The plate was incubated at room temperature for 20 minutes to stabilize luminescent signal. • Record luminescence on the 2104 EnVision plate reader.
Inhibition rate (IR) of the tested compounds was determined by the following formula: IR (%)=(1−(RLU compound−RLU day0)/(RLU control−RLU day0))*100%. The inhibitions of different dose of compound were calculated in Excel file, and then were used to plot inhibition curves and evaluate related parameters, such as Min (%), Max (%) and GI50. The data were interpreted by GraphPad Prism.
For orientation: ATP-based viability assays read luminescence as a measure of living cells.

In assay [2] the test system is tumor fragments from a mCRPC patient. Briefly: Enzalutamide-resistant patient-derived xenograft prostate model (ST2347 PDX). Type of assay: in vivo, male Balb/c nude mice. (Xenograft models place foreign cells or tissue in a host animal.)
The subject of assay [3] is VCap prostate cancer. Briefly: Non-castrated VCap prostate cancer model. Type of assay: in vivo, male CB17/Scid mice. The method, then:
Compound (I), enzalutamide, and abiraterone were tested in non-castrated VCap prostate cancer model in male CB17/Scid mice.
All treatment groups reduced mean tumor volume.

Setting [4] is: inhibition rate, 6 days, Compound (I) from 10 μM, temozolomide from 100 μM, 3-fold, 9 points.

As a reminder, the GI50 is the concentration at which growth is held to half of that of the control. Regarding `CC(C)N1CCOc2c(F)cc(-c3nc(Nc4ccc(C5CCN(C)CC5)cn4)ncc3F)cc21` [Compound (I), 5-fluoro-4-(8-fluoro-4-isopropyl-3,4-dihydro-2H-benzo[b][1,4]oxazin-6-yl)-N-(5-(1-methylpiperidin-4-yl)pyridin-2-yl)pyrimidin-2-amine], in assay [1] (KM12-Luc, 144 h, 6 days incubation, read-out: Absolute GI50), the GI50 was 654 nM. In assay [1] (setting [4]), the “Max (%)” value came out at 111.2%. For the same compound, in assay [1] (setting [4]), the “Min (%)” value was −15.2%. Besides, the “Antitumor activity over the course of the treatment” value in assay [2] (30 mg/kg oral QD) was “statistically significant antitumor activity”. The Tumor regression entry in assay [2] (30 mg/kg oral QD) is “tumor regression in all cases”. Besides, the “Mice with 100% reduction in tumor volume” value in assay [2] (day 39 of treatment) is recorded as “one”. Moreover, the “Mice with >50% reduction in tumor volume” value in assay [2] (day 39 of treatment) is on record as 3 of 10. The “Tumor volume (mean ± SEM)” value stood at 171.8 ± 6 mm^3 in assay [3] (Group 3: Compound (I) 10 mg/kg p.o. QD * 26 days, Day 0); 221.9 ± 15.2 mm^3 in assay [3] (Group 3: Compound (I) 10 mg/kg p.o. QD * 26 days, Day 4); 260.9 ± 13.8 mm^3 in assay [3] (Group 3: Compound (I) 10 mg/kg p.o. QD * 26 days, Day 7); 310.5 ± 19.9 mm^3 in assay [3] (Group 3: Compound (I) 10 mg/kg p.o. QD * 26 days, Day 11); 381.2 ± 15.4 mm^3 in assay [3] (Group 3: Compound (I) 10 mg/kg p.o. QD * 26 days, Day 14); 420.6 ± 20.2 mm^3 in assay [3] (Group 3: Compound (I) 10 mg/kg p.o. QD * 26 days, Day 18). Also, the “Tumor volume (mean ± SEM)” value in assay [3] (Group 3: Compound (I) 10 mg/kg p.o. QD * 26 days, Day 21) stood at 514.2 ± 16.5 mm^3; in assay [3] (Group 3: Compound (I) 10 mg/kg p.o. QD * 26 days, Day 25), 596.9 ± 22.9 mm^3; in assay [3] (Group 4: Compound (I) 30 mg/kg p.o. QD * 26 days, Day 0) it was 171.7 ± 6.1 mm^3; in assay [3] (Group 4: Compound (I) 30 mg/kg p.o. QD * 26 days, Day 4) it was 218.9 ± 14.4 mm^3; in assay [3] (Group 4: Compound (I) 30 mg/kg p.o. QD * 26 days, Day 7) it was 233.4 ± 16.4 mm^3; in assay [3] (Group 4: Compound (I) 30 mg/kg p.o. QD * 26 days, Day 11) it was 253.7 ± 20.6 mm^3. For the same compound, the “Tumor volume (mean ± SEM)” value is 279.1 ± 23.6 mm^3 in assay [3] (Group 4: Compound (I) 30 mg/kg p.o. QD * 26 days, Day 14); 259.2 ± 23.5 mm^3 in assay [3] (Group 4: Compound (I) 30 mg/kg p.o. QD * 26 days, Day 18); 235.9 ± 18.3 mm^3 in assay [3] (Group 4: Compound (I) 30 mg/kg p.o. QD * 26 days, Day 21); 232.9 ± 21.3 mm^3 in assay [3] (Group 4: Compound (I) 30 mg/kg p.o. QD * 26 days, Day 25). Besides, the Antitumor effect result in assay [3] (compound (I) 30 mg/kg PO QD, enzalutamide 20 mg/kg PO QD) is “greatest inhibition of tumor growth”.
